The values below come from patent US11566007B2, “Ras inhibitors” (Revolution Medicines, Inc., priority 2019, dated 2023).

Several values for one entry are separate records, joined by “and”; a condition that tells them apart may be missing. Equal values may be shown once.

Experiment [1] has as its target KRAS G12S (Homo sapiens (Human), UniProt P01116+P62937, G12S). Description: Ras-Raf (BRAF RBD) disruption / FRET / MOA assay, KRAS G12S. It is filed as biochemical. The settings on record: Ras-Raf disruption/FRET/MOA assay; class symbols; read-out: KRAS G12S FRET data IC50. A digest of the protocol:
(§1)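 Compound-driven ternary complex of nucleotide-loaded Ras with cyclophilin A, disrupting BRAF RBD binding. 10-point 3-fold dilution from 30 μM final, 3 h at 25° C, then anti-His Eu-W1024 (10 nM) and anti-GST allophycocyanin (50 nM) for 1.5 h. IC50 from TR-FRET ratio decrease versus DMSO.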

Experiment [2] concerns NCI-H358 cells (K-Ras G12C). Description: Potency assay: pERK in NCI-H358 cells. The format is cell-based, human. The conditions noted are these: Homo sapiens, NCI-H358; H358 KRAS G12C; read-out: pERK EC50. A digest of the protocol:
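4 h cpd, 37 °C; 10-pt 3-fold series, 10 mM DMSO top stock, duplicates. Readout pERK: AlphaLISA SureFire Ultra or In-Cell Western (IR-800CW secondary, DRAQ5 DNA stain). IC50, 4-PL fit vs log conc.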

Experiment [3] concerns the target K-Ras G12C (Homo sapiens (Human), UniProt P01116+P62937, G12C). Description: Ras-Raf (BRAF RBD) disruption / FRET / MOA assay, KRAS G12C. The format is biochemical. The settings on record: KRAS G12C; Ras-Raf disruption/FRET/MOA assay; read-out: IC50* KRAS G12C FRET data. In a few lines: as §1
Experiment [4] concerns NCI-H358 (K-Ras G12C). Description: CellTiter-Glo cell viability assay, NCI-H358. It is filed as cell-based, human. The settings on record: Homo sapiens, NCI-H358, 120 h, NCI-H358, 5-day treatment; class symbols; read-out: Additional H358 Cell Viability assay data (K-Ras G12C, IC50). In a few lines: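 Viability of K-Ras mutant lines is measured by ATP luminescence after five days of compound treatment. Percent of DMSO control is calculated and dose-response data are fitted with a four-parameter logistic equation.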
For orientation: In ATP-based viability assays light output follows the ATP content of the culture.

The target of experiment [5] is KRAS G13D (Homo sapiens (Human), UniProt P01116+P62937, G13D). Description: Ras-Raf (BRAF RBD) disruption / FRET / MOA assay, KRAS G13D. The format is biochemical. The conditions noted are these: read-out: IC50* KRAS G13D FRET data. A digest of the protocol: as §1
Experiment [6] concerns the target NRAS G12C (Homo sapiens (Human), UniProt P01111+P62937, G12C). Description: Ras-Raf (BRAF RBD) disruption / FRET / MOA assay, NRAS G12C. The conditions noted are these: read-out: IC50* NRAS G12C FRET data. The format is biochemical. A digest of the protocol:
as §1

For experiment [7], the target named is KRAS WT (Homo sapiens (Human), UniProt P01116+P62937). Description: Ras-Raf (BRAF RBD) disruption / FRET / MOA assay, KRAS WT. It is filed as biochemical. The settings on record: read-out: IC50* KRAS WT FRET data. A digest of the protocol:
as §1

In experiment [8] the target is K-Ras G13C (Homo sapiens (Human), UniProt P01116+P62937, G13C). Description: Ras-Raf (BRAF RBD) disruption / FRET / MOA assay, KRAS G13C. The conditions noted are these: KRAS G13C; Ras-Raf disruption/FRET/MOA assay; read-out: IC50* KRAS G13C FRET data. The format is biochemical. In a few lines:
as §1

Experiment [9] addresses KRAS G12D (Homo sapiens (Human), UniProt P01116+P62937, G12D). Description: Ras-Raf (BRAF RBD) disruption / FRET / MOA assay, KRAS G12D. It is filed as biochemical. The conditions noted are these: Ras-Raf disruption/FRET/MOA assay; class symbols; read-out: KRAS G12D FRET data IC50. In a few lines:
as §1

Experiment [10] has as its target KRAS G12V (Homo sapiens (Human), UniProt P01116+P62937, G12V). Description: Ras-Raf (BRAF RBD) disruption / FRET / MOA assay, KRAS G12V. The format is biochemical. The conditions noted are these: read-out: IC50* KRAS G12V FRET data. In a few lines: as §1

Chain of K-Ras G13C (P01116-2 other isoform, or with tags, fused parts or gaps G13C): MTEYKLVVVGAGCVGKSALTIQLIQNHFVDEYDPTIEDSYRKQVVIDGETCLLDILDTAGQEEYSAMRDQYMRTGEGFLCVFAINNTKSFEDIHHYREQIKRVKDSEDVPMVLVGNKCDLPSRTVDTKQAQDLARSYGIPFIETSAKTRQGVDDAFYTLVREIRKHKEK
Chain of K-Ras G13C (P62937 whole entry): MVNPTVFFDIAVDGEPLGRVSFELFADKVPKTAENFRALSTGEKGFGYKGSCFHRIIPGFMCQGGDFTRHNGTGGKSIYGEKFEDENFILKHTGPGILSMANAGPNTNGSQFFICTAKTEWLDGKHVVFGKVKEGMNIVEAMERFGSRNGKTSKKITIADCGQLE
Chain of KRAS G13D (P01116-2 other isoform, or with tags, fused parts or gaps G13D): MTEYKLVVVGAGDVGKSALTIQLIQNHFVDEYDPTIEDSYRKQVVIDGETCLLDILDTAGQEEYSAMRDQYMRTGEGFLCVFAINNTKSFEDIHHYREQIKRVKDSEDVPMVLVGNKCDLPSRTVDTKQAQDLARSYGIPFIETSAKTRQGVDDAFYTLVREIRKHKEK
Chain of KRAS G13D (P62937 whole entry): as the sequence (P62937 whole entry) above
Chain of KRAS G12V (P01116-2 other isoform, or with tags, fused parts or gaps G12V): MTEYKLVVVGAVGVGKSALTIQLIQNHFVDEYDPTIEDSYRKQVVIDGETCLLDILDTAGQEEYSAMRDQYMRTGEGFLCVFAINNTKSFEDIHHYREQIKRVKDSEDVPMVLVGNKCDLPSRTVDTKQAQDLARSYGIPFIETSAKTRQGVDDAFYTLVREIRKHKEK
Chain of KRAS G12V (P62937 whole entry): as the sequence (P62937 whole entry) above
Chain of NRAS G12C (P01111 whole entry G12C): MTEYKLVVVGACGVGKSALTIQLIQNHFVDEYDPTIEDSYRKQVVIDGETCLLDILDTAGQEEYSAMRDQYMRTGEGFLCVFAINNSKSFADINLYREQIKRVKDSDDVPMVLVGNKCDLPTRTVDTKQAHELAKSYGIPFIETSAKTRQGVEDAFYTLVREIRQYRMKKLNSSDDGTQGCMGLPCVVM
Chain of NRAS G12C (P62937 whole entry): as the sequence (P62937 whole entry) above
Chain of KRAS G12D (P01116-2 other isoform, or with tags, fused parts or gaps G12D): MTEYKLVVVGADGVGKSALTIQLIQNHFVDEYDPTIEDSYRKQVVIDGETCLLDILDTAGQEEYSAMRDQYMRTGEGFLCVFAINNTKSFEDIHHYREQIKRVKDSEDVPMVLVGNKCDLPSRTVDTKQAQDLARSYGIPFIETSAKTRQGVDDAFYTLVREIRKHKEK
Chain of KRAS G12D (P62937 whole entry): as the sequence (P62937 whole entry) above
Chain of K-Ras G12C (P01116-2 other isoform, or with tags, fused parts or gaps G12C): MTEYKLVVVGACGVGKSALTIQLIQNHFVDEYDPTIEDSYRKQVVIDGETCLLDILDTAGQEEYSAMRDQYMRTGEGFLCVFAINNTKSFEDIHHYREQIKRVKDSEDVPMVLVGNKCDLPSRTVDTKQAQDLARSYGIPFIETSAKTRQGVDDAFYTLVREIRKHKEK
Chain of K-Ras G12C (P62937 whole entry): as the sequence (P62937 whole entry) above
Chain of KRAS WT (P01116-2 other isoform, or with tags, fused parts or gaps): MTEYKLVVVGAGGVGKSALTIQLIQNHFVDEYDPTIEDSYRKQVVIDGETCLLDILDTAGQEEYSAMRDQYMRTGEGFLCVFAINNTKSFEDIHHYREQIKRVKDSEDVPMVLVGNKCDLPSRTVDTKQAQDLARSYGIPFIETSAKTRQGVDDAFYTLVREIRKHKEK
Chain of KRAS WT (P62937 whole entry): as the sequence (P62937 whole entry) above
Chain of KRAS G12S (P01116-2 other isoform, or with tags, fused parts or gaps G12S): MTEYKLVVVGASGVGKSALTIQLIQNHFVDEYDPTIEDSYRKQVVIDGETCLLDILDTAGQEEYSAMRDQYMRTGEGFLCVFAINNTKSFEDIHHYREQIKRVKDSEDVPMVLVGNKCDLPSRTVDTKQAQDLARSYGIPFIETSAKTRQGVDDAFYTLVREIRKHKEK
Chain of KRAS G12S (P62937 whole entry): as the sequence (P62937 whole entry) above

As a reminder, the IC50 is the concentration that inhibits the measured activity by half. By EC50 is commonly meant the concentration at which the effect is half-maximal. Consider `CCn1c(-c2cccnc2[C@H](C)OC)c2c3cc(ccc31)-c1cccc(c1)C[C@H](NC(=O)[C@H](C(C)C)N(C)C(=O)[C@H]1CCN(C(=O)C#CCN(C)C)C1)C(=O)N1CCC[C@H](N1)C(=O)OCC(C)(C)C2` (atropisomer, axis not shown) [Example A121], for which the IC50 was 1 to 10 µM and > 10 µM in experiment [1]; 0.01 to 0.1 µM and < 0.01 µM in [3]; 0.01 to 0.1 µM in [4]; 1 to 10 µM in experiment [5]; 0.01 to 0.1 µM and < 0.01 µM in [6]; 1 to 10 µM and > 10 µM in experiment [7]. Also, the IC50 was 0.01 to 0.1 µM and 1 to 10 µM in [8]; 1 to 10 µM in [9]; 1 to 10 µM and > 10 µM in [10]. In addition, the EC50 in [2] was below 5 µM.

Regarding `C=CC(=O)N1CC[C@H](C(=O)N(C)[C@H](C(=O)N[C@@H]2C(=O)N3CCC[C@H](N3)C(=O)OCC(C)(C)Cc3c(-c4cncnc4)n(CC)c4ccc(cc34)-c3cccc(c3)[C@H]2OC)C(C)C)C1` [Example A273], the IC50 in experiment [1] is above 10 µM; in experiment [3], above 10 µM; in experiment [4], above 1 µM; in experiment [5] it was above 10 µM; in experiment [6], above 10 µM; in experiment [7] it was above 10 µM. Besides, the IC50 in experiment [8], in experiment [9] and in experiment [10] was above 10 µM each time.

`CC#CC(=O)N1CC[C@H](C(=O)N(C)[C@H](C(=O)N[C@H]2Cc3nc(cs3)-c3ccc4c(c3)c(c(-c3cccnc3[C@H](C)OC)n4C(C)=O)CC(C)(C)COC(=O)[C@@H]3CCCN(N3)C2=O)C(C)C)C1` [Example A293]: the 50% inhibitory concentration (IC50) in [1] is above 10 µM; in [3], above 10 µM; in experiment [4], above 1 µM; in experiment [5], above 10 µM; in experiment [6], above 10 µM; in experiment [7], above 10 µM. For the same compound, the IC50 in [8], in [9] and in experiment [10] was above 10 µM each time.

Turning to `CO[C@@H](C)c1ncccc1-c1nc2ccc3cn2c1CC(C)(C)COC(=O)[C@@H]1CCCN(N1)C(=O)[C@@H](NC(=O)[C@H](C(C)C)N(C)C(=O)[C@H]1CCN(C(=O)C#CC(C)(C)N(C)C)C1)Cc1cccc-3c1` [Example A311], the IC50 in [1] is above 10 µM; in [3] it was above 10 µM; in experiment [4] it was above 1 µM; in [5] it was above 10 µM; in experiment [6], above 10 µM; in [7] it was above 10 µM. Also, the IC50 in experiment [8], in [9] and in experiment [10] was above 10 µM throughout.

On to `C=CC(=O)N1CC[C@H](C(=O)N(C)[C@H](C(=O)NC2C[C@@H]3CN(CCO3)c3ccc4c(c3)c(c(-c3cccnc3[C@H](C)OC)n4CC)CC(C)(C)COC(=O)[C@@H]3CCCN(N3)C2=O)C(C)C)C1` (stereo partly shown) [Example A312], for which the IC50 in experiment [1] was above 10 µM; in [3], above 10 µM; in [4], above 1 µM; in experiment [5] it was above 10 µM; in experiment [6], above 10 µM; in experiment [7], above 10 µM. Besides, the IC50 in experiment [8], in experiment [9] and in [10] was above 10 µM throughout.

Turning to `C=CC(=O)N1CC[C@H](C(=O)N(C)[C@H](C(=O)N[C@H]2Cc3cccc(c3)-c3ccc4c(c3)c(c(-c3cc(CN(C)C)cnc3[C@H](C)OC)n4CC)CC(C)(C)COC(=O)[C@@H]3CCCN(N3)C2=O)C(C)C)C1` [Example A523], the IC50 is above 10 µM in experiment [1]; 1 to 10 µM in experiment [3]; 0.1 to 1 µM in experiment [4]; above 10 µM in experiment [5]; 1 to 10 µM in [6]; above 10 µM in experiment [7]. The IC50 in [8], in [9] and in experiment [10] was above 10 µM throughout.
